From PubChem BioAssay (NCI)
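Test compounds were applied to cells in 96-well plates for 48 hours at 5 doses. The concentration for full growth arrest is given as TGI.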

What was measured:
Experiment in all cases: NCI tumour cell line growth inhibition, 48 h
U251 CNS = tested on: U251 CNS
SF-539 CNS = tested on: SF-539 CNS
786-0 renal = tested on: 786-0 renal
UO-31 renal = tested on: UO-31 renal
MALME-3M melanoma = tested on: MALME-3M melanoma
SW-620 colon = tested on: SW-620 colon
RPMI-8226 leukemia = tested on: RPMI-8226 leukemia
HL-60(TB) leukemia = tested on: HL-60(TB) leukemia
NCI-H460 lung = tested on: NCI-H460 lung
IGROV1 ovarian = tested on: IGROV1 ovarian
OVCAR-5 ovarian = tested on: OVCAR-5 ovarian
RXF 393 renal = tested on: RXF 393 renal
HT29 colon = tested on: HT29 colon
MDA-MB-231 breast = tested on: MDA-MB-231 breast
K-562 leukemia = tested on: K-562 leukemia
SF-295 CNS = tested on: SF-295 CNS
SK-OV-3 ovarian = tested on: SK-OV-3 ovarian
HCT-116 colon = tested on: HCT-116 colon
COLO 205 colon = tested on: COLO 205 colon
SNB-19 CNS = tested on: SNB-19 CNS
M14 melanoma = tested on: M14 melanoma
NCI/ADR-RES ovarian = tested on: NCI/ADR-RES ovarian
MCF7 breast = tested on: MCF7 breast
LOX IMVI melanoma = tested on: LOX IMVI melanoma
DU-145 prostate = tested on: DU-145 prostate
PC-3 prostate = tested on: PC-3 prostate
NCI-H226 lung = tested on: NCI-H226 lung
A498 renal = tested on: A498 renal
SN12C renal = tested on: SN12C renal
UACC-62 melanoma = tested on: UACC-62 melanoma
SK-MEL-28 melanoma = tested on: SK-MEL-28 melanoma
A549 NSCLC = tested on: A549 NSCLC
OVCAR-8 ovarian = tested on: OVCAR-8 ovarian
SK-MEL-2 melanoma = tested on: SK-MEL-2 melanoma
NCI-H23 lung = tested on: NCI-H23 lung
ACHN renal = tested on: ACHN renal
OVCAR-4 ovarian = tested on: OVCAR-4 ovarian
TK-10 renal = tested on: TK-10 renal
MOLT-4 leukemia = tested on: MOLT-4 leukemia
T-47D breast = tested on: T-47D breast
BT-549 breast = tested on: BT-549 breast
SK-MEL-5 melanoma = tested on: SK-MEL-5 melanoma
OVCAR-3 ovarian = tested on: OVCAR-3 ovarian
HCT-15 colon = tested on: HCT-15 colon
SF-268 CNS = tested on: SF-268 CNS
MDA-N = tested on: MDA-N
KM12 colon = tested on: KM12 colon
SNB-75 CNS = tested on: SNB-75 CNS
HOP-62 NSCLC = tested on: HOP-62 NSCLC
SR leukemia = tested on: SR leukemia
EKVX NSCLC = tested on: EKVX NSCLC
UACC-257 melanoma = tested on: UACC-257 melanoma
HOP-92 NSCLC = tested on: HOP-92 NSCLC
MDA-MB-435 = tested on: MDA-MB-435
CCRF-CEM leukemia = tested on: CCRF-CEM leukemia
HS 578T breast = tested on: HS 578T breast
HCC-2998 colon = tested on: HCC-2998 colon
NCI-H522 lung = tested on: NCI-H522 lung
CAKI-1 renal = tested on: CAKI-1 renal

## CN(C)c1ccc(/C=C2\C[C@H]3[C@@H]4CC=C5C[C@@H](O)CC[C@]5(C)[C@H]4CC[C@]3(C)C2=O)cc1
U251 CNS
  TGI: 25.9 µM
SF-539 CNS
  TGI: 27.9 µM
786-0 renal
  TGI: 41 µM
UO-31 renal
  TGI: 18.9 µM
MALME-3M melanoma
  TGI: 39.6 µM
SW-620 colon
  TGI: > 100 µM
RPMI-8226 leukemia
  TGI: > 100 µM
HL-60(TB) leukemia
  TGI: > 100 µM
NCI-H460 lung
  TGI: 33.7 µM
IGROV1 ovarian
  TGI: 35.8 µM
OVCAR-5 ovarian
  TGI: 46.4 µM
RXF 393 renal
  TGI: 43.9 µM
HT29 colon
  TGI: 56.2 µM
MDA-MB-231 breast
  TGI: 36 µM
K-562 leukemia
  TGI: > 100 µM
SF-295 CNS
  TGI: 75.8 µM
SK-OV-3 ovarian
  TGI: 63.7 µM
HCT-116 colon
  TGI: > 100 µM
COLO 205 colon
  TGI: > 100 µM
SNB-19 CNS
  TGI: 39.3 µM
M14 melanoma
  TGI: 46 µM
NCI/ADR-RES ovarian
  TGI: 66.8 µM
MCF7 breast
  TGI: > 100 µM
LOX IMVI melanoma
  TGI: 29 µM
DU-145 prostate
  TGI: > 100 µM
PC-3 prostate
  TGI: 29.3 µM
NCI-H226 lung
  TGI: 42.3 µM
A498 renal
  TGI: 38.2 µM
SN12C renal
  TGI: 54.9 µM
UACC-62 melanoma
  TGI: 32.6 µM
SK-MEL-28 melanoma
  TGI: 40 µM
A549 NSCLC
  TGI: 44.4 µM
OVCAR-8 ovarian
  TGI: 19.1 µM
SK-MEL-2 melanoma
  TGI: 41.4 µM
NCI-H23 lung
  TGI: 81.2 µM
ACHN renal
  TGI: 34.8 µM
OVCAR-4 ovarian
  TGI: 48.2 µM
TK-10 renal
  TGI: 39.3 µM
MOLT-4 leukemia
  TGI: > 100 µM
T-47D breast
  TGI: 62.8 µM
BT-549 breast
  TGI: > 100 µM
SK-MEL-5 melanoma
  TGI: > 100 µM
OVCAR-3 ovarian
  TGI: 66.8 µM
HCT-15 colon
  TGI: > 100 µM
SF-268 CNS
  TGI: 27.7 µM
MDA-N
  TGI: > 100 µM
KM12 colon
  TGI: > 100 µM
SNB-75 CNS
  TGI: 57 µM
HOP-62 NSCLC
  TGI: 38.3 µM
SR leukemia
  TGI: > 100 µM
EKVX NSCLC
  TGI: 93.7 µM
UACC-257 melanoma
  TGI: 40.2 µM

## CC(C)(C)OC(=O)NC(CSCc1ccc(C(=O)c2ccccc2)cc1)C(=O)O (stereo unspecified)
U251 CNS
  TGI: > 100 µM
HOP-92 NSCLC
  TGI: > 100 µM
SF-539 CNS
  TGI: > 100 µM
786-0 renal
  TGI: > 100 µM
UO-31 renal
  TGI: > 100 µM
MDA-MB-435
  TGI: > 100 µM
CCRF-CEM leukemia
  TGI: > 100 µM
MALME-3M melanoma
  TGI: > 100 µM
SW-620 colon
  TGI: > 100 µM
RPMI-8226 leukemia
  TGI: > 100 µM
HS 578T breast
  TGI: > 100 µM
HL-60(TB) leukemia
  TGI: > 100 µM
NCI-H460 lung
  TGI: > 100 µM
IGROV1 ovarian
  TGI: > 100 µM
OVCAR-5 ovarian
  TGI: > 100 µM
RXF 393 renal
  TGI: > 100 µM
HT29 colon
  TGI: > 100 µM
MDA-MB-231 breast
  TGI: > 100 µM
K-562 leukemia
  TGI: > 100 µM
SF-295 CNS
  TGI: > 100 µM
HCT-116 colon
  TGI: > 100 µM
COLO 205 colon
  TGI: > 100 µM
SNB-19 CNS
  TGI: > 100 µM
NCI/ADR-RES ovarian
  TGI: > 100 µM
MCF7 breast
  TGI: > 100 µM
HCC-2998 colon
  TGI: > 100 µM
LOX IMVI melanoma
  TGI: > 100 µM
DU-145 prostate
  TGI: > 100 µM
PC-3 prostate
  TGI: > 100 µM
NCI-H226 lung
  TGI: > 100 µM
A498 renal
  TGI: > 100 µM
SN12C renal
  TGI: > 100 µM
SK-MEL-28 melanoma
  TGI: > 100 µM
A549 NSCLC
  TGI: > 100 µM
OVCAR-8 ovarian
  TGI: > 100 µM
NCI-H23 lung
  TGI: > 100 µM
ACHN renal
  TGI: > 100 µM
NCI-H522 lung
  TGI: > 100 µM
OVCAR-4 ovarian
  TGI: > 100 µM
TK-10 renal
  TGI: > 100 µM
MOLT-4 leukemia
  TGI: > 100 µM
BT-549 breast
  TGI: > 100 µM
CAKI-1 renal
  TGI: > 100 µM
SK-MEL-5 melanoma
  TGI: > 100 µM
OVCAR-3 ovarian
  TGI: > 100 µM
HCT-15 colon
  TGI: > 100 µM
SF-268 CNS
  TGI: > 100 µM
MDA-N
  TGI: > 100 µM
KM12 colon
  TGI: > 100 µM
SNB-75 CNS
  TGI: > 100 µM
HOP-62 NSCLC
  TGI: > 100 µM
SR leukemia
  TGI: > 100 µM
EKVX NSCLC
  TGI: > 100 µM
UACC-257 melanoma
  TGI: > 100 µM
